According to patent US20260365671A1, “HETEROCYCLIC COMPOUND” (Takeda Pharmaceutical Company Limited, priority 2022, published 2026):

Experiments:
[1] = target: T1, NLRP3 inflammasome (Homo sapiens, UniProt Q96P20); assay: IL-1β TR-FRET assay (THP-1 cells differentiated to macrophages with IFN-γ, LPS primed, ATP activated; HTRF); type: cell-based; conditions: THP-1 macrophages, 50 ng/mL LPS priming, compound 30 min, 20 mM ATP 2 hours
T1 construct: IL-1beta HTRF
How it was run: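 IL-1β release was read by HTRF after 16–24 h antibody incubation at room temperature, using supernatants from THP-1-derived macrophages (IFN-γ 25 ng/mL, LPS 50 ng/mL priming) given compound 30 min and then 20 mM ATP for 2 h. % inhibition versus concentration was fitted logistically for IC50.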

[2] = test system: NF-κB pathway; assay: TNF-α assay (THP-1 cells differentiated to macrophages with IFN-γ, NF-κB pathway activated with LPS; ELISA); type: cell-based, Human; conditions: compound 30 min, 50 ng/mL LPS 3 hours
How it was run: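 TNF-α release measured by ELISA after 3 h stimulation with 50 ng/mL LPS, following 30 min compound pretreatment (37 °C, no FBS). Cells were THP-1 macrophages primed with IFN-γ 25 ng/mL for 24 h. IC50 derived by logistic curve fit.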

[3] = Homo sapiens, THP-1, THP-1 macrophages

T1 sequence (Q96P20 whole entry): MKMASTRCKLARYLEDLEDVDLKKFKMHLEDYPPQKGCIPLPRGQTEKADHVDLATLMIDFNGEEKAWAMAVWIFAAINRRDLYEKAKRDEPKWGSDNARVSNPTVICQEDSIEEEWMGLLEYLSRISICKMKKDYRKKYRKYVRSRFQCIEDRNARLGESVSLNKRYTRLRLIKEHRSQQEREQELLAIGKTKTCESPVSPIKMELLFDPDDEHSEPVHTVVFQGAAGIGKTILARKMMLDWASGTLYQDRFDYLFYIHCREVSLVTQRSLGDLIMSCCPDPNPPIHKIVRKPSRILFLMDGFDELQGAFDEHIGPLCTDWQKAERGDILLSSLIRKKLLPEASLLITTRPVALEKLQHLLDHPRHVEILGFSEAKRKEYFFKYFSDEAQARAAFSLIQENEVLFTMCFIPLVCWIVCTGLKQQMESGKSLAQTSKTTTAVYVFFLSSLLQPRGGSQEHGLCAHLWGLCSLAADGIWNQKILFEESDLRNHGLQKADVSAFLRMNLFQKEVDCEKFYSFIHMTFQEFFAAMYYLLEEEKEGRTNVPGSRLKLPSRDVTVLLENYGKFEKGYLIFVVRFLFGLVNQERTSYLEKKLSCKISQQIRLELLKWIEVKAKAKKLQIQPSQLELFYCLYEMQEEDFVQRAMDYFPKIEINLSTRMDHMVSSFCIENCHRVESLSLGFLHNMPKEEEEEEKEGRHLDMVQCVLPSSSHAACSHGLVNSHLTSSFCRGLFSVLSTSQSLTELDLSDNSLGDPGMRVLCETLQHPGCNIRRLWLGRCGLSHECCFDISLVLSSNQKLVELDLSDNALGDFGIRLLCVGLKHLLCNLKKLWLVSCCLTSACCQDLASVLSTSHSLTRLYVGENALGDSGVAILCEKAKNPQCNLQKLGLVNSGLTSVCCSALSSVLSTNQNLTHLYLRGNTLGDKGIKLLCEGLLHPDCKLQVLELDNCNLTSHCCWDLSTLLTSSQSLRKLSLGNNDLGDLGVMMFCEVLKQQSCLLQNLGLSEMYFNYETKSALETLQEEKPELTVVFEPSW

Structure (SMILES)	IC50 [1] [µM]	IC50 [2, 3] [µM]	IC50 ([2]; THP-1 macrophages) [µM]
Cc1cc(C)c(-n2cc3sc(N[C@@H]4CCN(CC(F)F)C4)nc3n2)c(O)c1 [Example 67, 2-(5-{[1-(2,2-difluoroethyl)pyrrolidin-3-yl]amino}-2H-pyrazolo[3,4-d][1,3]thiazol-2-yl)-3,5-dimethylphenol]	0.95	> 30	–
Cc1cc(C)c(-n2cc3sc(NC4CCN(C(=O)CC(F)F)C4)nc3n2)c(O)c1 (stereo not drawn) [Example 68, 3,3-difluoro-1-(3-{[2-(2-hydroxy-4,6-dimethylphenyl)-2H-pyrazolo[3,4-d][1,3]thiazol-5-yl]amino}pyrrolidin-1-yl)propan-1-one]	0.22	> 10	–
Cc1cc(C)c(-n2cc3sc(NC4CCN(C(=O)OCC(Cl)(Cl)Cl)C4)nc3n2)c(O)c1 (stereo not drawn) [Example 69, 2,2,2-trichloroethyl 3-{[2-(2-hydroxy-4,6-dimethylphenyl)-2H-pyrazolo[3,4-d][1,3]thiazol-5-yl]amino}pyrrolidine-1-carboxylate]	0.25	> 10	–
Cc1cc(C)c(-n2nc3nc(N[C@@H]4C[C@@H](F)CN(C)C4)sc3c2C)c(O)c1 [Example 70, 2-(5-{[(3R,5R)-5-fluoro-1-methylpiperidin-3-yl]amino}-3-methyl-2H-pyrazolo[3,4-d][1,3]thiazol-2-yl)-3,5-dimethylphenol]	0.059	> 30	–
CN1C[C@H](F)C[C@@H](Nc2nc3nn(-c4c(O)cc(Cl)cc4C(F)F)cc3s2)C1 [Example 75, 5-chloro-3-(difluoromethyl)-2-(5-{[(3R,5R)-5-fluoro-1-methylpiperidin-3-yl]amino}-2H-pyrazolo [3,4-d][1,3]thiazol-2-yl)phenol]	0.016	> 30	–
CO[C@@H]1C[C@@H](Nc2nc3nn(-c4c(C)cc(C)cc4O)cc3s2)CN(C)C1 [Example 76]	1.6	> 30	–
Cc1cc(C)c(-n2cc3sc(NC4CCN(C(=O)OCc5ccccc5)C4)nc3n2)c(O)c1 (stereo not drawn) [Example 77, benzyl 3-{[2-(2-hydroxy-4,6-dimethylphenyl)-2H-pyrazolo[3,4-d][1,3]thiazol-5-yl]amino}pyrrolidine-1-carboxylate]	0.47	> 10	–
CCN1C[C@H](F)C[C@@H](Nc2nc3nn(-c4c(O)cc(Cl)cc4C(F)F)cc3s2)C1 [Example 78, 5-chloro-3-(difluoromethyl)-2-(5-{[(3R,5R)-1-ethyl-5-fluoropiperidin-3-yl]amino}-2H-pyrazolo[3,4-d][1,3]thiazol-2-yl)phenol]	0.0043	> 10	–
Cc1cc(C)c(-n2cc3sc(N[C@@H]4CN(C)C[C@H]4F)nc3n2)c(O)c1 [Example 79, 2-(5-{[(3R,4R)-4-fluoro-1-methylpyrrolidin-3-yl]amino}-2H-pyrazolo[3,4-d][1,3]thiazol-2-yl)-3,5-dimethylphenol]	1.1	> 30	–
Cc1cc(C)c(-n2cc3sc(N[C@H]4CN(C)C[C@@H]4F)nc3n2)c(O)c1 [Example 80, 2-(5-{[(3S,4S)-4-fluoro-1-methylpyrrolidin-3-yl]amino}-2H-pyrazolo[3,4-d][1,3]thiazol-2-yl)-3,5-dimethylphenol]	0.037	> 30	–
Cc1cc(C)c(-n2cc3sc(NC4CCN(C)CC4)nc3n2)c(O)c1 [Example 81, 3,5-dimethyl-2-{5-[(1-methylpiperidin-4-yl)amino]-2H-pyrazolo[3,4-d][1,3]thiazol-2-yl}phenol]	3.1	> 30	–
Cc1cc(Cl)cc(O)c1-n1cc2c(nc(N[C@@H]3C[C@@H](F)CN(C)C3)n2C)n1 [Example 82, 5-chloro-2-[5-{[(3R,5R)-5-fluoro-1-methylpiperidin-3-yl]amino}-4-methylimidazo[4,5-c]pyrazol-2(4H)-yl]-3-methylphenol]	0.049	> 30	–
CCC(O)CNc1nc2nn(-c3c(C)cc(C)cc3O)cc2s1 (stereo not drawn) [Example 83, 2-{5-[(2-hydroxybutyl)amino]-2H-pyrazolo[3,4-d][1,3]thiazol-2-yl}-3,5-dimethylphenol]	0.82	> 30	–
Cc1cc(C)c(-n2cc3sc(NCC4(O)CC4)nc3n2)c(O)c1 [Example 84, 2-(5-{[(1-hydroxycyclopropyl)methyl]amino}-2H-pyrazolo[3,4-d][1,3]thiazol-2-yl)-3,5-dimethylphenol]	0.38	> 30	–
CC(=O)N1CCC(Nc2nc3nn(-c4c(C)cc(C)cc4O)cc3s2)C1 (stereo not drawn) [Example 85, 1-(3-{[2-(2-hydroxy-4,6-dimethylphenyl)-2H-pyrazolo[3,4-d][1,3]thiazol-5-yl]amino}pyrrolidin-1-yl)ethan-1-one]	0.35	> 30	–
CNC(=O)N1CCC(Nc2nc3nn(-c4c(C)cc(C)cc4O)cc3s2)C1 (stereo not drawn) [Example 86, 3-{[2-(2-hydroxy-4,6-dimethylphenyl)-2H-pyrazolo[3,4-d][1,3]thiazol-5-yl]amino}-N-methylpyrrolidine-1-carboxamide]	0.3	> 30	–
CCc1cc(C)cc(O)c1-n1cc2sc(NC[C@@H](C)O)nc2n1 [Example 87, 3-ethyl-2-(5-{[(2R)-2-hydroxypropyl]amino}-2H-pyrazolo[3,4-d][1,3]thiazol-2-yl)-5-methylphenol]	0.096	> 30	–
COCC(=O)N1CCC(Nc2nc3nn(-c4c(C)cc(C)cc4O)cc3s2)C1 (stereo not drawn) [Example 89, 1-(3-{[2-(2-hydroxy-4,6-dimethylphenyl)-2H-pyrazolo[3,4-d][1,3]thiazol-5-yl]amino}pyrrolidin-1-yl)-2-methoxyethan-1-one]	0.55	–	> 30
Cc1cc(C)c(-n2cc3sc(NC4CCN(C(=O)C(F)F)C4)nc3n2)c(O)c1 (stereo not drawn) [Example 90, 2,2-difluoro-1-(3-{[2-(2-hydroxy-4,6-dimethylphenyl)-2H-pyrazolo[3,4-d][1,3]thiazol-5-yl]amino}pyrrolidin-1-yl)ethan-1-one]	0.54	> 10	–
COC(=O)N1CCC(Nc2nc3nn(-c4c(C)cc(C)cc4O)cc3s2)C1 (stereo not drawn) [Example 91, methyl 3-{[2-(2-hydroxy-4,6-dimethylphenyl)-2H-pyrazolo[3,4-d][1,3]thiazol-5-yl]amino}pyrrolidine-1-carboxylate]	0.66	> 10	–
Cc1cc(C)c(-n2cc3sc(NC4CCN(C)C4)nc3n2)c(O)c1 (stereo not drawn) [Example 92, 3,5-dimethyl-2-{5-[(1-methylpyrrolidin-3-yl)amino]-2H-pyrazolo[3,4-d][1,3]thiazol-2-yl}phenol]	0.27	> 30	–
Cc1cc(O)c(-n2cc3sc(NC[C@@H](C)O)nc3n2)c(C(C)C)c1 [Example 93, 2-(5-{[(2R)-2-hydroxypropyl]amino}-2H-pyrazolo[3,4-d][1,3]thiazol-2-yl)5-methyl-3-(propan-2-yl)phenol]	0.28	> 30	–
Cc1cc(O)c(-n2cc3sc(N[C@@H]4C[C@@H](F)CN(C)C4)nc3n2)c(C(C)C)c1 [Example 94, 2-(5-{[(3R,5R)-5-fluoro-1-methylpiperidin-3-yl]amino}-2H-pyrazolo[3,4-d][1,3]thiazol-2-yl)-5-methyl-3-(propan-2-yl)phenol]	0.031	> 30	–
Cc1cc(C)c(-n2cc3sc(NC4CC(=O)N(C)C4)nc3n2)c(O)c1 (stereo not drawn) [Example 95, 4-{[2-(2-hydroxy-4,6-dimethylphenyl)-2H-pyrazolo[3,4-d][1,3]thiazol-5-yl]amino}-1-methylpyrrolidin-2-one]	1.3	> 30	–
Cc1cc(C)c(-n2cc3sc(NC4CCN(C(=O)C5CC5)C4)nc3n2)c(O)c1 (stereo not drawn) [Example 96, cyclopropyl(3-{[2-(2-hydroxy-4,6-dimethylphenyl)-2H-pyrazolo[3,4-d][1,3]thiazol-5-yl]amino}pyrrolidin-1-yl)methanone]	0.4	> 30	–
Cc1cc(C)c(-n2cc3sc(NC4CCN(C(=O)CC5CC5)C4)nc3n2)c(O)c1 (stereo not drawn) [Example 97, 2-cyclopropyl-1-(3-{[2-(2-hydroxy-4,6-dimethylphenyl)-2H-pyrazolo[3,4-d][1,3]thiazol-5-yl]amino}pyrrolidin-1-yl)ethan-1-one]	0.26	> 10	–
Cc1cc(C)c(-n2cc3sc(NC4CCN(C(=O)C5(F)CC5)C4)nc3n2)c(O)c1 (stereo not drawn) [Example 98, (1-fluorocyclopropyl)(3-{[2-(2-hydroxy-4,6-dimethylphenyl)-2H-pyrazolo[3,4-d][1,3]thiazol-5-yl]amino}pyrrolidin-1-yl)methanone]	0.46	> 30	–
Cc1cc(C)c(-n2cc3sc(NC4CCN(C(=O)C5(C#N)CC5)C4)nc3n2)c(O)c1 (stereo not drawn) [Example 99, 1-(3-{[2-(2-hydroxy-4,6-dimethylphenyl)-2H-pyrazolo[3,4-d][1,3]thiazol-5-yl]amino}pyrrolidine-1-carbonyl)cyclopropane-1-carbonitrile]	0.25	> 30	–
Cc1cc(C)c(-n2cc3sc(NC4CCN(S(C)(=O)=O)C4)nc3n2)c(O)c1 (stereo not drawn) [Example 100, 2-(5-{[1-(methanesulfonyl)pyrrolidin-3-yl]amino}-2H-pyrazolo[3,4-d][1,3]thiazol-2-yl)-3,5-dimethylphenol]	0.62	> 30	–
Cc1cc(C)c(-n2cc3sc(NC4CCN(S(=O)(=O)C5CC5)C4)nc3n2)c(O)c1 (stereo not drawn) [Example 101, 2-(5-{[1-(cyclopropanesulfonyl)pyrrolidin-3-yl]amino}-2H-pyrazolo[3,4-d][1,3]thiazol-2-yl)-3,5-dimethylphenol]	0.42	> 30	–
